Experiments:
Design in all cases: species or system rat (male Sprague-Dawley)
[1] = target: T1, 5-HT1A receptors (Rattus norvegicus, UniProt P19327); assay: in vitro binding: inhibition of 3H-8-OH-DPAT binding to synaptosomal membranes from rat cerebral cortex; conditions: 3H-8-OH-DPAT 2 nM, 37° C., 10 min, pH 7.4
T1 construct: from tissue; host or cells: cerebral cortex (crude synaptosomal membranes) of male Sprague-Dawley rats
T1 sequence (P19327 1-422): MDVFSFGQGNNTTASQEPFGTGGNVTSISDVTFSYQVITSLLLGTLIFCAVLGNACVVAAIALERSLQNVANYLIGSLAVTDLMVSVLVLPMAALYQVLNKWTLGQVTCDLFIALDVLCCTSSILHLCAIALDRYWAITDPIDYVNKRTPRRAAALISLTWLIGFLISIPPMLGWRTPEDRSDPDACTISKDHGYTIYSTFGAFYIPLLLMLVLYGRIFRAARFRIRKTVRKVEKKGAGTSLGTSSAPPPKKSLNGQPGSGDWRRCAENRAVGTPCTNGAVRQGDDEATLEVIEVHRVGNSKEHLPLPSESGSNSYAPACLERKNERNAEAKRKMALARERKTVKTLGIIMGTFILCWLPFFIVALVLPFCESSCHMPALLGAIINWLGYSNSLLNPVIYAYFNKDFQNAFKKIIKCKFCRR
Description: Sites specifically labeled by tritiated 8-hydroxy-2-dipropylamino-1,2,3,4-tetrahydronaphthalene (^3 H-8-OH-DPAT) have been identified as 5-HT1A receptors. This general procedure is set forth in Wong et al., J. Neural Transm. 71:207-218 (1988).
Male Sprague-Dawley rats (110-150 g) from Harlan Industries (Cumberland, Ind.) were fed a Purina Chow ad libitum for at least 3 days before being used in the studies. Rats were killed by decapitation. The brains were rapidly removed, and the cerebral cortices were dissected out at 4° C.
Brain tissues were homogenized in 0.32M sucrose. After centrifugation at 1000×g for 10 min and then at 17000×g for 20 min, a crude synaptosomal fraction was sedimented. The pellet was suspended in 100 vol of 50 mM Tris-HCl, pH 7.4, incubated at 37° C. for 10 min, and centrifuged at 50000×g for 10 min. The process was repeated and the final pellet was suspended in ice-chilled 50 mM Tris-HCl, pH 7.4.
Binding of ^3 H-8-OH-DPAT was performed according to the previously described method [Wong et al., J. Neural Transm. 64:251-269 (1985)]. Briefly, synaptosomal membranes isolated from cerebral cortex were incubated at 37° C. for 10 min. in 2 ml of 50 mM Tris-HCl, pH 7.4; 10 mM pargyline; 0.6 mM ascorbic acid; 5 mM CaCl2; 2 nM ^3 H-8-OH-DPAT and 0.1 to 1000 nm of the compound of interest. Binding was terminated by filtering samples under reduced pressure through glass fiber (GFB) filters. The filters were washed twice with 5 ml of ice cold buffer and placed in scintillation vials with 10 ml of PCS (Amersham/Searle) scintillation fluid. Radioactivity was measured with a liquid scintillation spectrometer. Unlabeled 8-OH-DPAT at 10 μM was also included in separate samples to establish non-specific binding. Specific binding of ^3 H-8-OH-DPAT is defined as the difference of radioactivity bound in the absence and in the presence of 10 μM unlabeled 8-OH-DPAT.
(§1) The results provided in columns 3-5 are indicative of 5-HT1A agonist activity.

[2] = target: T1, 5-HT1A receptors; assay: in vivo lowering of brain 5-HIAA levels (5-HT1A agonist activity); conditions: one hour after treatment
Procedure: (§2) Compounds of this invention were also examined for their in vivo effects on brain 5-HIAA and serum corticosterone levels. Male Sprague-Dawley rats weighting 150-200 g were administered subcutaneously or orally with aqueous solutions of the test compound. One hour after treatment, the rats were decapitated and trunk blood collected. The blood was allowed to clot and then was centrifuged to separate the serum. The concentration of corticosterone in the serum was determined by the spectrofluorometric method of Solem, J. H.; Brinck-Johnsen, T., Scand. J. Clin. Invest. [Suppl. 80], 17, 1 (1965). The whole brains from the decapitated rats were quickly removed, frozen on dry ice, and stored at -15° C. 5-HIAA concentrations were measured by liquid chromatography with electrochemical detection as described by Fuller, R. W.; Snoddy, H. D.; Perry, K. W., Life Sci. 40, 1921 (1987).
as §1

[3] = target: T1, 5-HT1A receptors; assay: in vivo elevation of serum corticosterone levels (5-HT1A agonist activity); conditions: sc, one hour after treatment
Procedure: as §2, §1

Row | SMILES | IC50 [1] | 5-HIAA MED (minimum effective dose lowering brain 5-HIAA levels) ([2]; sc) | Corticosterone MED (minimum effective dose elevating serum corticosterone levels) [3] | 5-HIAA MED (minimum effective dose lowering brain 5-HIAA levels) ([2]; po)
1 | CCCN(CCC)C1CCc2cccc(-c3noc4ccccc34)c2C1 (stereo not drawn) [Example 17, 2-Di-n-propylamino-8-(indoxazin-3-yl)-1,2,3,4-tetrahydronaphthalene] | 5 nM | > 1.0 mg/kg | > 1.0 mg/kg | –
2 | CCCN(CCC)C1CCc2cccc(-c3ccnc(N)n3)c2C1 (stereo not drawn) [Example 32, 2-Di-n-propylamino-8-(2-aminopyrimidin-4-yl)-1,2,3,4-tetrahydronaphthalene] | 67 nM | – | – | –
3 | CCCN(CCC)C1CCc2cccc(-c3noc(-c4ccccc4)n3)c2C1 (stereo not drawn) [Example 2, 2-Di-n-propylamine-8-(5-phenyl-1,2,4-oxadiazol-3-yl)-1,2,3,4-tetrahydronaphthalene] | 36 nM | – | – | –
4 | CCCN(CCC)C1CCc2cccc(-c3ccnn3C)c2C1 (stereo not drawn) [5 (5-yl), 2-Di-n-propylamino-8-(1-methylpyrazol-5-yl)-1,2,3,4-tetrahydronaphthalene] | 7.2 nM | – | – | –
5 | CCCN(CCC)C1CCc2cccc(-c3cc(O)[nH]n3)c2C1 (stereo not drawn) [Example 6, 2-Di-n-propylamino-8-(5-hydroxypyrazol-3-yl)-1,2,3,4-tetrahydronaphthalene] | 62 nM | – | – | –
6 | CCCN(CCC)C1CCc2cccc(-c3ccc4ccccc4n3)c2C1 (stereo not drawn) [Example 12, 2-Di-n-propylamino-8-(quinol-2-yl)-1,2,3,4-tetrahydronaphthalene] | 87 nM | – | – | –
7 | CCCN(CCC)C1CCc2cccc(-c3cccnc3)c2C1 (stereo not drawn) [Example 14, 2-Di-n-propylamino-8-(pyrid-3-yl)-1,2,3,4-tetrahydronaphthalene] | 7.2 nM | > 1.0 mg/kg | > 1.0 mg/kg | –
8 | CCCN(CCC)C1CCc2cccc(-c3nccs3)c2C1 (stereo not drawn) [Example 9, 2-Di-n-propylamino-8-(thiazol-2-yl)-1,2,3,4-tetrahydronaphthalene] | 12 nM | > 1.0 mg/kg | > 1.0 mg/kg | –
9 | CCCN(CCC)C1CCc2cccc(-c3nocc3C)c2C1 (stereo not drawn) [Example 26, 2-Di-n-propylamino-8-(4-methylisoxazol-3-yl)-1,2,3,4-tetrahydronaphthalene] | 6.4 nM | 1.0 mg/kg | > 1.0 mg/kg | –
10 | CCCN(CCC)C1CCc2cccc(-c3csc(N)n3)c2C1 (stereo not drawn) [Example 10, 2-Di-n-propylamino-8-(2-aminothiazol-4-yl)-1,2,3,4-tetrahydronaphthalene] | 19 nM | – | – | –
11 | CCCN(CCC)C1CCc2cccc(-c3cc(C)no3)c2C1 (stereo not drawn) [Example 23, 2-Di-n-propylamino-8-(3-methylisoxazol-5-yl)-1,2,3,4-tetrahydronaphthalene] | – | 1.0 mg/kg | > 1.0 mg/kg | –
12 | CCCN(CCC)C1CCc2cccc(-c3nc(-c4ccccc4)no3)c2C1 (stereo not drawn) [Example 34, 2-Di-n-propylamino-8-(3-phenyl-1,2,4-oxadiazol-5-yl)-1,2,3,4-tetrahydronaphthalene] | 11 nM | – | – | –
13 | CCCN(CCC)C1CCc2cccc(-c3cnc4ccccc4c3)c2C1 (stereo not drawn) [Example 13, 2-Di-n-propylamino-8-(quinol-3-yl)-1,2,3,4-tetrahydronaphthalene] | 16 nM | – | – | –
14 | CCCN(CCC)C1CCc2cccc(-c3cc(SC)no3)c2C1 (stereo not drawn) [Example 30, 2-Di-n-propylamino-8-(3-methylthioisoxazol-5-yl)-1,2,3,4-tetrahydronaphthalene] | – | > 1.0 mg/kg | > 1.0 mg/kg | –
15 | CCCN(CCC)C1CCc2cccc(-c3cc[nH]n3)c2C1 (stereo not drawn) [Example 33, 2-Di-n-propylamino-8-(pyrazol-3-yl)-1,2,3,4-tetrahydronaphthalene] | 4.9 nM | > 1.0 mg/kg | > 1.0 mg/kg | –
16 | CCCN(CCC)C1CCc2cccc(-c3nc(C)no3)c2C1 (stereo not drawn) [Example 35, 2-Di-n-propylamino-8-(3-methyl-1,2,4-oxidiazol-5-yl)-1,2,3,4-tetrahydronaphthalene] | 16 nM | – | – | –
17 | CCCN(CCC)C1CCc2cccc(-c3ccn(C)n3)c2C1 (stereo not drawn) [5 (3-yl), 2-Di-n-propylamino-8-(1-methylpyrazol-3-yl)-1,2,3,4-tetrahydronaphthalene] | 5 nM | > 1.0 mg/kg | 1.0 mg/kg | –
18 | CCCN(CCC)C1CCc2cccc(-c3oncc3C)c2C1 (stereo not drawn) [Example 21, 2-Di-n-propylamino-8-(4-methylisoxazol-5-yl)-1,2,3,4-tetrahydronaphthalene] | – | 0.3 mg/kg | 1.0 mg/kg | > 10 mg/kg
19 | CCCN(CCC)C1CCc2cccc(-c3cc(Br)no3)c2C1 (stereo not drawn) [Example 20, 2-Di-n-propylamino-8-(3-bromoisoxazol-5-yl)-1,2,3,4-tetrahydronaphthalene] | – | > 1.0 mg/kg | > 1.0 mg/kg | –
20 | CCCN(CCC)C1CCc2cccc(-c3ccncc3)c2C1 (stereo not drawn) [Example 16, 2-Di-n-propylamino-8-(pyrid-4-yl)-1,2,3,4-tetrahydronaphthalene] | 9.8 nM | > 1.0 mg/kg | > 1.0 mg/kg | –
21 | CCCN(CCC)C1CCc2cccc(-c3cscn3)c2C1 (stereo not drawn) [Example 11, 2-Di-n-propylamino-8-(thiazol-4-yl)-1,2,3,4-tetrahydronaphthalene] | 4.9 nM | > 1.0 mg/kg | > 1.0 mg/kg | –
22 | CCCN(CCC)C1CCc2cccc(-c3ccccn3)c2C1 (stereo not drawn) [Example 15, 2 -Di-n-propylamino-8-(pyrid-2-yl)-1,2,3,4-tetrahydronaphthalene] | 33 nM | – | – | –
23 | CCCN(CCC)C1CCc2cccc(-c3cc(C)on3)c2C1 (stereo not drawn) [Example 28, 2-Di-n-propylamino-8-(5-methylisoxazol-3-yl)-1,2,3,4-tetrahydronaphthalene] | 3.8 nM | > 1.0 mg/kg | > 1.0 mg/kg | –
24 | CCCN(CCC)C1CCc2cccc(-c3oncc3OC)c2C1 (stereo not drawn) [Example 31, 2-Di-n-propylamino-8-(4-methoxyisoxazol-5-yl)-1,2,3,4-tetrahydronaphthalene] | – | 1.0 mg/kg | > 1.0 mg/kg | –
25 | CCCN(CCC)C1CCc2cccc(-c3ccno3)c2C1 (stereo not drawn) [Example 8, 2-Di-n-propylamino-8-(isoxazol-5-yl)-1,2,3,4-tetrahydronaphthalene] | – | 0.1 mg/kg | 0.3 mg/kg | 3 mg/kg

Source: patent US5571942A, “Ring-substituted 2-amino-1,2,3,4-tetrahydronaphthalenes and 3-aminochromanes” (Eli Lilly and Company, priority 1995, dated 1996)
